ChEMBL document CHEMBL5506015, “Discovery of a Meisoindigo-Derived PROTAC as the ATM Degrader: Revolutionizing Colorectal Cancer Therapy via Synthetic Lethality with ATR Inhibitors” (J Med Chem, 2024)
pIC50: −log10 of the molar value. The source made the active and inactive calls. The rule behind the calls is not given here.

How the values were obtained:
SW-620 [1] = test: Cytotoxicity against human SW620 cells assessed as reduction in cell viability incubated for 48 hrs by MTT assay; conditions: SW-620, 48 h
SW-620 [2] = test: Cytotoxicity against human SW620 cells transfected with ATM shRNA assessed as reduction in cell viability measured after 48 hrs by MTT assay; conditions: SW-620, 48 h
SW-620 [3] = test: Induction of cell cycle arrest in human SW620 cells assessed as accumulation of cells at G0/G1 phase incubated for 12 hrs by flow cytometry based analysis; assay type: functional; conditions: dose 5-10 µM
[4] = Downregulation of ATM level in human HCT-116 cells transfected with ATM shRNA by immunoblot analysis; assay type: functional
COLO 205 = test: Cytotoxicity against human COLO 205 cells assessed as reduction in cell viability incubated for 48 hrs by MTT assay; conditions: COLO 205, 48 h
SW-620 [5] = test: Downregulation of KDM4B level in human SW620 cells at 10 uM measured after 12 hrs in presence of tert-butyl ((S)-1-((2S,4R)-4-hydroxy-2-((4-(4-methylthiazol-5-yl)benzyl)carbamoyl)pyrrolidin-1-yl)-3,3-dimethyl-1-oxobutan-2-yl)carbamate by immunoblot analysis; assay type: functional, cell-based
RKO = test: Cytotoxicity against human RKO cells assessed as reduction in cell viability incubated for 48 hrs by MTT assay
SW480 [6] = test: Downregulation of ATM level in human SW480 cells at 10 uM by immunoblot analysis; assay type: functional, cell-based; conditions: time <= 12.0 hrs, TDE = time-dependent effect
SW480 [7] = test: Cytotoxicity against human SW480 cells transfected with NC shRNA assessed as reduction in cell viability measured after 48 hrs by MTT assay; conditions: SW480, 48 h
SW-620 [8] = test: Induction of apoptosis in human SW620 cells measured after 12 hrs by Annexin V-FITC/propidium iodide staining-based flow cytometric analysis; assay type: functional, cell-based; conditions: dose 5-10 µM
SW-620 [9] = test: Antitumor activity against human SW620 cells xenografted in Balb/c nude mouse model assessed as necrosis at 15 mg/kg/day measured after 14 days by H and E staining based analysis; assay type: functional, organism-based; conditions: time 14.0 day
SW480 [10] = test: Downregulation of ATM level in human SW480 cells measured after 12 hrs by immunoblot analysis; assay type: functional, cell-based; conditions: dose 1.25-10 µM
SW-620 [11] = test: Potentiation of AZD6738 induced DNA damage in human SW620 cells assessed as gamma-H2AX accumulation in nuclei at 5 uM incubated for 12 hrs by immunohistochemical staining based analysis; assay type: functional, cell-based
NCI-H358 = test: Cytotoxicity against human NCI-H358 cells assessed as reduction in cell viability incubated for 48 hrs by MTT assay; conditions: NCI-H358, 48 h
SW-620 [12] = test: Antitumor activity against human SW620 cells xenografted in Balb/c nude mouse model assessed as fibrosis at 15 mg/kg/day measured after 14 days by H and E staining based analysis; assay type: functional, organism-based; conditions: time 14.0 day
SW480 [13] = test: Induction of apoptosis in human SW480 cells measured after 12 hrs by Annexin V-FITC/propidium iodide staining-based flow cytometric analysis; assay type: functional, cell-based; conditions: dose 5-10 µM
K562 [14] = test: Induction of DNA damage in human K562 cells assessed as accumulation of phosphorylated-chk2 (Thr68) measured after 8 hrs by immunoblot analysis; assay type: functional, cell-based
[15] = Downregulation of ATM level in human HCT-116 cells transfected with NC shRNA by immunoblot analysis; assay type: functional
SW-620 [16] = test: Antitumor activity against human SW620 cells xenografted in Balb/c nude mouse model assessed as decrease in BCL2 protein level at 15 mg/kg/day measured after 14 days by Western blot analysis; assay type: functional, organism-based; conditions: time 14.0 day
K562 [17] = test: Induction of DNA damage in human K562 cells assessed as gamma-H2AX accumulation at 20 uM incubated for 8 hrs by immunoblot analysis; assay type: functional, cell-based
[18] = Toxicity in Balb/c nude mouse assessed as effect on body weight loss at 15 mg/kg/day administered for 14 days in presence of AZD6738 […]; assay type: organism-based; conditions: in vivo, 336 h, time 14 day
K562 [19] = test: Induction of DNA damage in human K562 cells assessed as accumulation of phosphorylated-chk2 (Thr68) at 20 uM by immunoblot analysis; assay type: functional, cell-based; conditions: time <= 12.0 hrs, TDE = time-dependent effect
SW-620 [20] = test: Downregulation of PROX1 level in human SW620 cells measured after 12 hrs by immunoblot analysis; assay type: functional, cell-based; conditions: dose 1.25-10 µM
LoVo = test: Cytotoxicity against human LoVo cells assessed as reduction in cell viability incubated for 48 hrs by MTT assay
SW-620 [21] = test: Upregulation of cleaved caspase 3 level in human SW620 cells at 1.25 to 10 uM measured after 12 hrs by immunoblot analysis; assay type: functional, cell-based; conditions: dose 1.25-10 µM
K562 [22] = test: Upregulation of cleaved caspase 3 level in human K562 cells at 5 to 20 uM measured after 8 hrs by immunoblot analysis; assay type: functional, cell-based; conditions: dose 5-20 µM
SW480 [23] = test: Upregulation of cleaved caspase 3 level in human SW480 cells at 1.25 to 10 uM measured after 12 hrs by immunoblot analysis; assay type: functional, cell-based; conditions: dose 1.25-10 µM
SW-620 [24] = test: Downregulation of ATM level in human SW620 cells at 10 uM by immunoblot analysis; assay type: functional, cell-based; conditions: time <= 24.0 hrs, TDE = time-dependent effect
SW480 [25] = test: Downregulation of BCL2 level in human SW480 cells at 1.25 to 10 uM measured after 12 hrs by immunoblot analysis; assay type: functional, cell-based; conditions: dose 1.25-10 µM
[26] = Cytotoxicity against human HIEC-6 cells assessed as reduction in cell viability incubated for 48 hrs by MTT assay; assay type: toxicity, cell-based
K562 [27] = test: Downregulation of ATM level in human K562 cells at 20 uM by immunoblot analysis; assay type: functional, cell-based; conditions: time <= 24.0 hrs, TDE = time-dependent effect
K562 [28] = test: Downregulation of ATM level in human K562 cells measured after 8 hrs by immunoblot analysis; assay type: functional, cell-based; conditions: dose 5-20 µM
K562 [29] = test: Potentiation of AZD6738 induced DNA damage in human K562 cells assessed as gamma-H2AX accumulation in nuclei at 5 uM incubated for 12 hrs by immunohistochemical staining based analysis; assay type: functional, cell-based
[30] = Downregulation of ATM level in human SW480 cells transfected with ATM shRNA by immunoblot analysis; assay type: functional
SW-620 [31] = test: Antitumor activity against human SW620 cells xenografted in Balb/c nude mouse model assessed as reduction in tumor load at 15 mg/kg/day administered for 14 days in presence of AZD6738 by vernier caliper based analysis; assay type: functional, organism-based; conditions: time 14.0 day
K562 [32] = test: Induction of DNA damage in human K562 cells assessed as gamma-H2AX accumulation at 20 uM by immunoblot analysis; assay type: functional, cell-based; conditions: time <= 12.0 hrs, TDE = time-dependent effect
SW480 [33] = test: Downregulation of BCL2 level in human SW480 cells at 5 to 20 uM measured after 8 hrs by immunoblot analysis; assay type: functional, cell-based; conditions: dose 5-20 µM
[34] = Downregulation of ATM level in human SW480 cells transfected with NC shRNA by immunoblot analysis; assay type: functional
K562 [35] = test: Cytotoxicity against human K562 cells assessed as reduction in cell viability incubated for 48 hrs by MTT assay; conditions: K562, 48 h
SW-620 [36] = test: Induction of DNA damage in human SW620 cells assessed as accumulation of phosphorylated-chk2 (Thr68) measured after 12 hrs by immunoblot analysis; assay type: functional, cell-based; conditions: dose 2.5-10 µM
SW-620 [37] = test: Induction of DNA damage in human SW620 cells assessed as gamma-H2AX accumulation incubated for 12 hrs by immunoblot analysis; assay type: functional, cell-based; conditions: dose 2.5-10 µM

Compound: Cc1ncsc1-c1ccc(CNC(=O)[C@@H]2C[C@@H](O)CN2C(=O)[C@@H](NC(=O)CCCCCn2cc(CCCN3C(=O)/C(=C4/C(=O)Nc5ccccc54)c4ccccc43)nn2)C(C)(C)C)cc1
- pIC50 (SW-620 [1]): 5.43
- pIC50 (SW-620 [2]): 5.01
- Activity (SW-620 [3]): Dose-Dependent Effect
- Activity [4]: 15%
- pIC50 (COLO 205): 5.29
- Activity (SW-620 [5]): Active
- pIC50 (RKO): 5.40
- Activity (SW480 [6]): Tde
- pIC50 (SW480 [7]): 5.59
- Activity (SW-620 [8]): Dose-Dependent Effect
- Activity (SW-620 [9]): Active
- Activity (SW480 [10]): Dose-Dependent Effect
- Activity (SW-620 [11]): Active
- pIC50 (NCI-H358): < 4.70
- Activity (SW-620 [12]): Active
- Activity (SW480 [13]): Dose-Dependent Effect
- Activity (K562 [14]): Dose-Dependent Effect
- Activity [15]: 100%
- Activity (SW-620 [16]): Active
- Activity (K562 [17]): Active
- Activity [18]: Non-Toxic
- Activity (K562 [19]): Tde
- Activity (SW-620 [20]): Dose-Dependent Effect
- pIC50 (LoVo): 5.17
- Activity (SW-620 [21]): Active
- Activity (K562 [22]): Active
- Activity (SW480 [23]): Active
- Activity (SW-620 [24]): Tde
- Activity (SW480 [25]): Active
- IC50 at 48 h ([26]; HIEC-6 cells): 23.9 µM
- Activity ([26]; hiec-6, 48 h, dose 0.01-50 µM, time 48 hrs): Dose-Dependent Effect
- Activity (K562 [27]): Tde
- Activity (K562 [28]): Dose-Dependent Effect
- Activity (K562 [29]): Active
- Activity [30]: 23%
- Activity (SW-620 [31]): Active
- Activity (K562 [32]): Tde
- Activity (SW480 [33]): Active
- Activity [34]: 100%
- pIC50 (K562 [35]): 5.39
- Activity (SW-620 [36]): Dose-Dependent Effect
- Activity (SW-620 [37]): Dose-Dependent Effect
